Holding throughout (assay): tryptophan fluorescence quenching
Common to all, as to format: binding
What all share (details): receptor nanodiscs 500 nM; 20 mM Hepes, 100 mM NaCl, pH 8.0

For one experiment, the target named is T1, hOR51E2 (Homo sapiens, UniProt Q9H255).
T1 construct: gene OR51E2; E. coli SuptoxR (Rosetta 2 (DE3) with RraA); ~38 kDa
T1 sequence (Q9H255 1-320): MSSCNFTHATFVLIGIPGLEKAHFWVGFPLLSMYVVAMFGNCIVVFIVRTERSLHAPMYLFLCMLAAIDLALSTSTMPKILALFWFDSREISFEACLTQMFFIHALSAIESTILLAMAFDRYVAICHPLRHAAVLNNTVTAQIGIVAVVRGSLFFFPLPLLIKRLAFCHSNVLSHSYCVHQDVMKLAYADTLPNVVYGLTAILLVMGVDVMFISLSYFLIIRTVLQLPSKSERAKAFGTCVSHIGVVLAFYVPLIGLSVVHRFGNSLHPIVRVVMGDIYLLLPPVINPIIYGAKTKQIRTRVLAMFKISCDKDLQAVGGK

The target in a further experiment is T2, hOR51E1 (Homo sapiens, UniProt Q8TCB6).
T2 construct: gene OR51E1; E. coli SuptoxR (Rosetta 2 (DE3) with RraA); ~38 kDa
T2 sequence (Q8TCB6 1-318): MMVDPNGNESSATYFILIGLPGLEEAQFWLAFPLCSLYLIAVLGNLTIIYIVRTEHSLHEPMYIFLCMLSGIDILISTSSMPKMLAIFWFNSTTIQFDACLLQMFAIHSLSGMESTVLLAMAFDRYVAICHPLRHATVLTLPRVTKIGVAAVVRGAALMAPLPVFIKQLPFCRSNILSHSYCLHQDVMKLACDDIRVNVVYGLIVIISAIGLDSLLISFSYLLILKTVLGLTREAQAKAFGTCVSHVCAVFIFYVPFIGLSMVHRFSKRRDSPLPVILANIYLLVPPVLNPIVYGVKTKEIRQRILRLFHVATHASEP

The target of a further experiment is T3, hOR52D1 (Homo sapiens, UniProt Q9H346).
T3 construct: gene OR52D1; E. coli SuptoxR (Rosetta 2 (DE3) with RraA); ~38 kDa
T3 sequence (Q9H346 1-318): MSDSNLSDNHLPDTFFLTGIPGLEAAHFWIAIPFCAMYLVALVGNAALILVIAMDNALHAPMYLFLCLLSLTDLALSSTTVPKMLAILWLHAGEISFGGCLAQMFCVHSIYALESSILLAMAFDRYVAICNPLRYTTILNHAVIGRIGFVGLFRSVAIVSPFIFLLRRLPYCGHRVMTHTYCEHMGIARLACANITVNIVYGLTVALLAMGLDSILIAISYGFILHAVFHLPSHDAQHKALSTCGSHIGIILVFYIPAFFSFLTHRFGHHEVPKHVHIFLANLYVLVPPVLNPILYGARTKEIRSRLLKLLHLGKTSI

Experimental findings from paper PMC11114221, “A pattern recognition artificial olfactory system based on human olfactory receptors and organic synaptic devices” (Science Advances, 2024) are described below.

With `CCCC(=O)O` [BA, butyric acid], the “∆F/F0 (%)” value on hOR51E2, on hOR51E1 and on hOR52D1 was “each hOR ND displayed distinct binding affinities toward the SCFAs” throughout.
Take `CCCCCC(=O)O` [HA, hexanoic acid]: the “∆F/F0 (%)” value at hOR51E2, at hOR51E1 and at hOR52D1 was “each hOR ND displayed distinct binding affinities toward the SCFAs” in each case.
For the compound `CCC(=O)O` [PA, propionic acid], the “∆F/F0 (%)” value on hOR51E2, on hOR51E1 and at hOR52D1 was “each hOR ND displayed distinct binding affinities toward the SCFAs” each time.
In the case of `CCCCC(=O)O` [VA, valeric acid], the “∆F/F0 (%)” value on hOR51E2, at hOR51E1 and on hOR52D1 was “each hOR ND displayed distinct binding affinities toward the SCFAs” each time.
